Measured values published in patent publication US5104859A, “Continuous administration of adenosine to reduce pulmonary vascular resistance” (priority 1990, dated 1992).
“Also recorded” adds a separate entry of the source. Where two headings read alike, the source gives them in different places.

Legend:
Solubility of adenosine = format: physicochemical; details: for solubility: read-out: solubility limit
[1] = tested on: mean arterial blood pressure; details: dogs, cited from earlier work
central hemodynamics = assay: Per cent change of hemodynamics: adenosine, SNP and TNG induced controlled hypotension during cerebral aneurysm surgery; format: in vivo, human
Description: One hour before the operation the patients were premedicated orally with diazepam (10-20 mg.) Atropine (0.5 mg) and droperidol (0.1 mg. per kg.) were given intravenously before induction of anesthesia. Induction was started with thiopental (5 mg. per kg) followed by phenoperidine (1-2 mg), a synthetic opiate with pharmacodymanics resembling fentanyl but with a longer duration of action and 1/10 of its analgesic potency.
Pancuronium bromide (0.1 mg per kg) was given to facilitate endotracheal intubation. Anesthesia was maintained by supplementary doses of phenoperidine and droperidol, as required. […] Phenoperidine was supplemented regularly to prevent the blood pressure from exceeding the preanesthetic level (approx. 1 mg/30-60 min). Controlled hyperventilation was employed with a humidified gas mixture of 60% N2 O in oxygen to maintain PaCO2 values at approximately 30 mmHg (±1.5/SEM). Mannitol (1-1.5 g. per kg) was given routinely at the start of the operation (e.g., 1-2 hours prior to the controlled hypotension). The patients were operated on in the horizontal supine position.
A 1.2-mm plastic cannula was introduced into the left radial artery to monitor systemic arterial blood pressure (MABP) and collect arterial blood. A balloon-tipped, flow-directed, quadruple lumen Swan-Ganz catheter (Model 93A-831-7.5 F, VIP) was inserted percutaneously via the left basilic vein, and its correct position in the pulmonary artery was determined by pressure tracings. The catheter was used for the monitoring of mean right atrial pressure (RAP), mean pulmonary artery pressure (PAP), and mean pulmonary capillary wedge pressure (PCWP) for the determination of cardiac output and collection of mixed venous blood and for the infusion of adenosine. Another plastic cannula was introduced percutaneously, in a retrograde direction, into the right jugular bulb for the collection of blood. The correct position was verified by x-ray.
The ECG was monitored with a standard chest (V5) lead. Heart rate was determined from the R-R interval. Blood pressures were measured by transducers placed at the midthoracic level. Cardiac output (QT) was determined in triplicate according to the thermodilution technique with a cardiac output computer (Edwards Lab, model 9510). Isotonic glucose, 10 ml at 1° C., was used as a thermal indicator. The ECG, heart rate, blood pressures, and thermodilution curves were recorded on a Grass® polygraph.
The infusion was started at a rate of 0.01 mg. per kg. per minute, which was doubled at 15 second intervals until the desired MABP level of 40-50 mmHg was reached. […] Serum creatinine was determined before and on two consecutive days after operation. The standard ECG was recorded the day before and the day after operation.
Subsequent to the tests described above, a 20 mM solution of adenosine in isotonic saline was administered to 50 surgical patients employing techniques similar to those described, except that pretreatment with dipyridamole was omitted.

cardiovascular system = assay: General activity profile of adenosine by continuous infusion; details: for tachyphylaxis / rebound hypertension (words): hypotension
[2] = Plasma half-life of adenosine; format: in vivo
blood pressure = assay: Control of hypertensive crisis during surgery; format: in vivo, human; details: about 0.1 to about 0.2 mg/kg/min
Description: Continuous infusion of adenosine can also be employed to control hypertensive crises occurring during surgery. Such crises can occur, for example, as a result of release of catecholamines during surgery on pheochromocytoma--a tumor characterized by the presence of catecholamine--which can cause pulmonary edema and death. At present, this situation is treated prophylactically by pre-administration of alpha- and beta-adrenoceptor blockers or vasodilators, but the effect is often insufficient. […] Amounts of adenosine which are effective in controlling such hypertensive crises will depend on the degree of hypertension. However, as a general rule they are about half of the amounts found useful for controlled hypotension, i.e., in the range of from about 0.1 to about 0.2 mg adenosine per kilogram of body weight per minute.

platelets = assay: Platelet protection during cardiopulmonary bypass; format: in vivo, human
Description: Twenty-five patients scheduled for coronary artery bypass surgery were randomly assigned to two groups--one with adenosine infusion (n=13) and the other with placebo infusion (n=12).
Intravenous anesthesia was used, either high-dose fentanyl (100-150 ug/kg) or balanced anesthesia (thiopental, fentanyl, diazepam and N2 O/O2.
During cardiopulmonary bypass (CPB), mean arterial blood pressure (MABP) above 70 mmHg was treated with the vasodilator sodium nitroprusside (SNP), except in the final phase or rewarming. CPB was performed with SARN roller pump and a Shiley oxygenator (100A) primed with 2000 ml crystalloid solution (75 mg heparin). The perfusion rate was kept at approximately […] body surface. Moderate hypothermia (25° C.) was induced. Cardioplegia was obtained with Ringer's solution (with added potassium up to 20 mM/1). Heparin (3 mg/kg) was administered as a bolus injection before cannulation. The heparin effect was controlled by measurements of activated clotting time. (Hemocron® Int. Technidyne Corp, USA). […] At the termination of CPB, the heparin effect was antagonized with protamine (c. 1.3 mg/mg heparin). ACT was checked 10-20 min after the protamine injection. ACT values 120 sec were considered satisfactory.
Platelet count (Linson 431 A cell counter) and hematocrit were determined in arterial samples before anesthesia, after thoracotomy, during CPB at 10, 20, 40, 60, 80 and 100 min, 30 min after CPB and on the postoperative day. Platelet counts were expressed in percentage of preanesthesia levels and were corrected for hemodilution. MABP was monitored continuously via a catheter introduced in the radial artery. All patients received hypertonic mannitol (1-1.5 g/kg) during CPB and urine production was calculated as ml/.min of CPB (Table VI). […]
Statistical significance (controls v. adenosine group) was determinted with Student's t-test for unpaired data. For significance within the groups the Wilcoxon Rank Sum test was used. p […] 0.05 was regarded as significant.

Nc1ncnc2c1ncn2[C@@H]1O[C@H](CO)[C@@H](O)[C@H]1O [adenosine]
solubility limit (Solubility of adenosine; b421 prints mg/ml): 5.5-6 milligrams per milliliter | solubility (Solubility of adenosine; b421 prints mg/ml): 5500 to 6000 µg/mL | solubility (Solubility of adenosine): ~20 mM | mean arterial pressure with adenosine after dipyridamole ([1]; 50 ug/kg/minute adenosine): 40 mm/Hg | adenosine dose required for induction of hypotension without dipyridamole ([1]; pilot study, as much as): 5 to 10 mg/kg/min | HR, change from control (central hemodynamics; Table IV, n = 10): +9 Per Cent from Control | MABP, change from control (central hemodynamics; Table IV, n = 10): -43 Per Cent from Control | PAP, change from control (central hemodynamics; Table IV, n = 10): +15 Per Cent from Control | PCWP, change from control (central hemodynamics; Table IV, n = 10): +14 Per Cent from Control | PVR, change from control (central hemodynamics; Table IV, n = 10): -15 Per Cent from Control | QT (cardiac output), change from control (central hemodynamics; Table IV, n = 10): +44 Per Cent from Control | RAP, change from control (central hemodynamics; Table IV, n = 10): +6 Per Cent from Control | SVR, change from control (central hemodynamics; Table IV, n = 10): -61 Per Cent from Control | oxygen tissue pressures vs nitroprusside (central hemodynamics; controlled hypotension): better preserves oxygen tissue pressures | toxicity (cardiovascular system; amounts used in accordance with the invention): essentially non-toxic | after-load and pre-load (cardiovascular system; continuous infusion): little or no effect on cardiac pre-load; also recorded: reduce after-load, without having significant effect on pre-load | tachyphylaxis / rebound hypertension (words) (cardiovascular system): does not cause tachyphylaxis; also recorded: rebound hypertension is avoided | tachyphylaxis / rebound hypertension (words) (cardiovascular system; listed as Adenosine): without the occurrence of significant tachyphylaxis | heart rate on after-load reduction (cardiovascular system; in vivo): without significantly increasing heart rate | half-life [2]: < 10 s | blood pressure in catecholamine-induced hypertensive crisis (blood pressure): rapidly restore blood pressure to normal | intergroup difference in platelet counts (platelets; 60 min to end of CPB and 30 min after CPB): significant intergroup difference in platelet counts | infusion rate effective in protecting platelets (platelets; cardiopulmonary bypass): about 100 ug/kg/min | Platelet Count; % of Awake Count (platelets; during CPB, 10 minutes): 96 % of Awake Count | Platelet Count; % of Awake Count (platelets; during CPB, 20 minutes): 87 % of Awake Count | Platelet Count; % of Awake Count (platelets; during CPB, 40 minutes): 85 % of Awake Count | Platelet Count; % of Awake Count (platelets; during CPB, 60 minutes): 91 % of Awake Count | Platelet Count; % of Awake Count (platelets; during CPB, 80 minutes): 100 % of Awake Count | Platelet Count; % of Awake Count (platelets; during CPB, 100 minutes): 97 % of Awake Count | initial platelet reduction (platelets; during adenosine infusion): small, and was significant only at 20 and 40 minutes on CPB | Platelet Count; % of Awake Count (platelets; post CPB, 30 minutes): 88 % of Awake Count | Platelet Count; % of Awake Count (platelets; post CPB, 24 hours): 60 % of Awake Count
